Tests used:
[1] = system: uninephrectomized anesthetized rats; assay: Model of acute angiotensin-mediated renal hypertension in anesthetized rats; assay type: in vivo, Sprague-Dawley rats
Protocol: Male Sprague-Dawley rats, weighing 250-300 g, were anaesthetized with pentobarbital sodium (35 mg/kg, i.p.) and placed on a thermic blanket. The temperature was maintained at 37° C. with a thermoregulator via a rectal probe. The animals were tracheotomized to facilitate spontaneous breathing. A polyethylene catheter was placed in the left jugular vein to allow for infusion of pentobarbital sodium to maintain anesthesia. The left femoral vein and artery were cannulated with polyethylene catheters to allow drugs administration and to monitor blood pressure, respectively.
The animals then underwent a left nephrectomy by excising the left kidney via a flank incision. The right kidney and renal vein, artery and ureter then were exposed via a right retroperitoneal incision, under a dissecting microscope. Silk threads were placed around both vessels and ureter. The cavity was then covered with Vaseline oil. See Recordati, et al. 2000, J. Hypertension, 18:1277-1287.
ECG (lead II) was recorded by means of subcutaneous electrodes. After 30-60 minutes of basal recordings of arterial blood pressure and heart rate the threads around the renal vessels and ureter were tied close to the renal hilum to induce complete renal ischemia of the right kidney. After 2 hours of ischemia (designed as “120” in Tables 1-4), the threads were removed to allow renal reperfusion and urine output. The reopening of the renal hilum and restoration of renal circulation, induced an increase in blood pressure that peaked 5-10 minutes and lasted about 60 minutes. Drugs (vehicle, enalapril (100 μg/kg), lercanidipine (10 μg/kg), or both lercanidipine (10 μg/kg) and enalapril (100 μg/kg)) were administered intravenously at 5 minutes after reperfusion began (defined as 125 in Tables 4-7).
Statistical analysis was performed during the reperfusion time (time 125-180 minutes). To evaluate the statistical differences among the treatment groups, data were analyzed using a three-way ANOVA (analysis of variance) with repeated measures on factor time and pre-planned multiple comparisons. Statistical analysis was performed by means of general linear model procedure (GLM) with SAS software version 6.12.

[2] = cited from earlier work
[3] = system: conscious renal hypertensive dogs; assay: Lercanidipine and enalapril in renal hypertensive dogs (two-kidney, two clip); assay type: in vivo, beagle dogs
Protocol: Male beagle dogs, 10-12 months old and weighing between 10-11 kg, were used. All dogs were trained for several weeks, to comply unstressfully to the test environment. Chronic sustained hypertension was induced in 4 dogs by bilateral renal artery constriction, according to the Goldblatt method “two-kidney, two clip hypertension”. Briefly, under sodium pentobarbital anaesthesia (35 mg/kg i.v.) during two different surgical interventions 15 days apart from each other, in sterile conditions, both renal arteries were clipped with original renal silver clips and narrowed by about 60-70%. After two months from the last intervention, an experimental renal hypertension was produced and the animals were used for the implantation of catheter.
Under sodium pentobarbital anaesthesia (35 mg/kg i.v.), in sterile conditions, the dogs were catheterized by inserting a sensor tipped catheter (Mikro-Tip) into the ascending aorta through the right femoral artery. The catheter was subcutaneously exteriorized at the back of the neck.
After a week recovery time from surgery, the animals were placed in a dog restrained unit, composed by a frame and a dog sling hammock, and connected to the pressure transducers in order to monitor the arterial blood pressure.
All the animals were alternatively treated with vehicle, lercanidipine, enalapril and the combination of lercanidipine and enalapril. The drugs were administered by oral gavage in a volume of 1 ml/kg at the following dosages:
(2) lercanidipine (0.5 mg/kg)
(4) lercanidipine […] enalapril (0.5 mg/kg +3 mg/kg)
Blood pressure (systolic and diastolic) was monitored up to 6 h after the administration. Statistical analysis was performed from time 0 to time 360 min. To evaluate the statistical differences among the treatments, data were analyzed using a three-way ANOVA with repeated measures on factor time and pre-planned multiple comparisons. Statistical analysis was performed by means of GLM (general linear model procedure) with SAS software version 6.12.

[4] = enalapril 100 μg/kg i.v., time 0 min, basal
[5] = enalapril 100 μg/kg i.v., time 120 min, end of ischemia, before drug
[6] = enalapril 100 μg/kg i.v., time 125 min, reperfusion, before drug
[7] = enalapril 100 μg/kg i.v., time 130 min, drug given at 125 min
[8] = enalapril 100 μg/kg i.v., time 135 min, drug given at 125 min
[9] = enalapril 100 μg/kg i.v., time 150 min, drug given at 125 min
[10] = enalapril 100 μg/kg i.v., time 165 min, drug given at 125 min
[11] = enalapril 100 μg/kg i.v., time 180 min, drug given at 125 min
[12] = enalapril 3 mg/kg oral, 120 min
[13] = enalapril 3 mg/kg oral, 150 min
[14] = enalapril 3 mg/kg oral, 180 min
[15] = enalapril 3 mg/kg oral, 240 min
[16] = enalapril 3 mg/kg oral, 360 min
[17] = lercanidipine 10 μg/kg i.v., time 0 min, basal
[18] = lercanidipine 10 μg/kg i.v., time 120 min, end of ischemia, before drug
[19] = lercanidipine 10 μg/kg i.v., time 125 min, reperfusion, before drug
[20] = lercanidipine 10 μg/kg i.v., time 130 min, drug given at 125 min
[21] = lercanidipine 10 μg/kg i.v., time 135 min, drug given at 125 min
[22] = lercanidipine 10 μg/kg i.v., time 150 min, drug given at 125 min
[23] = lercanidipine 10 μg/kg i.v., time 165 min, drug given at 125 min
[24] = lercanidipine 10 μg/kg i.v., time 180 min, drug given at 125 min
[25] = lercanidipine 0.5 mg/kg oral, 15 min
[26] = lercanidipine 0.5 mg/kg oral, 30 min
[27] = lercanidipine 0.5 mg/kg oral, 45 min
[28] = lercanidipine 0.5 mg/kg oral, 60 min
[29] = lercanidipine 0.5 mg/kg oral, 90 min
[30] = lercanidipine 0.5 mg/kg oral, 120 min
[31] = lercanidipine 0.5 mg/kg oral, 150 min
[32] = lercanidipine 0.5 mg/kg oral, 180 min
[33] = lercanidipine 0.5 mg/kg oral, 240 min
[34] = lercanidipine 0.5 mg/kg oral, 360 min
[35] = lercanidipine 0.5 mg/kg oral, Basal

CCOC(=O)[C@H](CCc1ccccc1)N[C@@H](C)C(=O)N1CCC[C@H]1C(=O)O [enalapril, (S)-1-[N-1-(ethoxycarbonyl)-3-phenylpropyl]-L-alanyl-L-proline]
DBP (diastolic blood pressure) [1, 4]: 69.6 ± 2.1 mmHg | MBP (mean blood pressure) [1, 4]: 83.4 ± 2.1 mmHg | SBP (systolic blood pressure) [1, 4]: 111.0 ± 2.6 mmHg | DBP (diastolic blood pressure) [1, 5]: 65.1 ± 3.5 mmHg | MBP (mean blood pressure) [1, 5]: 80.0 ± 3.9 mmHg | SBP (systolic blood pressure) [1, 5]: 109.9 ± 5.1 mmHg | DBP (diastolic blood pressure) [1, 6]: 124.9 ± 4.3 mmHg | MBP (mean blood pressure) [1, 6]: 142.2 ± 5.4 mmHg | SBP (systolic blood pressure) [1, 6]: 176.8 ± 8.1 mmHg | DBP (diastolic blood pressure) [1, 7]: 109.9 ± 4.1 a mmHg | MBP (mean blood pressure) [1, 7]: 122.0 ± 4.1 b mmHg | SBP (systolic blood pressure) [1, 7]: 146.1 ± 4.5 c mmHg | DBP (diastolic blood pressure) [1, 8]: 107.1 ± 4.5 a mmHg | MBP (mean blood pressure) [1, 8]: 119.4 ± 4.2 b mmHg | SBP (systolic blood pressure) [1, 8]: 143.9 ± 4.1 b mmHg | DBP (diastolic blood pressure) [1, 9]: 95.9 ± 7.9 b mmHg | MBP (mean blood pressure) [1, 9]: 109.0 ± 7.4 c mmHg | SBP (systolic blood pressure) [1, 9]: 135.4 ± 6.6 b mmHg | DBP (diastolic blood pressure) [1, 10]: 86.5 ± 8.5 b mmHg | MBP (mean blood pressure) [1, 10]: 100.5 ± 8.0 b mmHg | SBP (systolic blood pressure) [1, 10]: 128.5 ± 7.6 a mmHg | DBP (diastolic blood pressure) [1, 11]: 78.9 ± 7.6 a mmHg | MBP (mean blood pressure) [1, 11]: 93.7 ± 7.2 a mmHg | SBP (systolic blood pressure) [1, 11]: 123.4 ± 6.9 mmHg | p value on mean blood pressure vs lercanidipine ([1]; three-way ANOVA, reperfusion time 125-180 min, lercanidipine 10 μg/kg, enalapril 100 μg/kg i.v.): p < 0.001 | time of peak plasma levels of enalaprilat ([2]; following oral administration of enalapril): 3 to 4 h | DBP (diastolic blood pressure) ([3]; enalapril 3 mg/kg oral, 15 min): 114.5 ± 4.9 mmHg | SBP (systolic blood pressure) ([3]; enalapril 3 mg/kg oral, 15 min): 162.8 ± 4.8 mmHg | DBP (diastolic blood pressure) ([3]; enalapril 3 mg/kg oral, 30 min): 114.0 ± 4.7 mmHg | SBP (systolic blood pressure) ([3]; enalapril 3 mg/kg oral, 30 min): 160.3 ± 4.1 mmHg | DBP (diastolic blood pressure) ([3]; enalapril 3 mg/kg oral, 45 min): 110.3 ± 4.7 mmHg | SBP (systolic blood pressure) ([3]; enalapril 3 mg/kg oral, 45 min): 158.0 ± 5.6 mmHg | DBP (diastolic blood pressure) ([3]; enalapril 3 mg/kg oral, 60 min): 105.3 ± 5.6 a mmHg | SBP (systolic blood pressure) ([3]; enalapril 3 mg/kg oral, 60 min): 158.0 ± 6.4 mmHg | DBP (diastolic blood pressure) ([3]; enalapril 3 mg/kg oral, 90 min): 107.5 ± 3.2 mmHg | SBP (systolic blood pressure) ([3]; enalapril 3 mg/kg oral, 90 min): 159.0 ± 5.8 mmHg | DBP (diastolic blood pressure) [3, 12]: 105.0 ± 5.3 b mmHg | SBP (systolic blood pressure) [3, 12]: 153.5 ± 7.5 mmHg | DBP (diastolic blood pressure) [3, 13]: 108.3 ± 4.5 a mmHg | SBP (systolic blood pressure) [3, 13]: 158.5 ± 5.7 mmHg | DBP (diastolic blood pressure) [3, 14]: 110.5 ± 3.6 mmHg | SBP (systolic blood pressure) [3, 14]: 158.8 ± 5.5 mmHg | DBP (diastolic blood pressure) [3, 15]: 116.0 ± 3.3 mmHg | SBP (systolic blood pressure) [3, 15]: 161.3 ± 7.2 mmHg | DBP (diastolic blood pressure) [3, 16]: 111.8 ± 4.3 mmHg | SBP (systolic blood pressure) [3, 16]: 158.8 ± 5.9 mmHg | DBP (diastolic blood pressure) ([3]; enalapril 3 mg/kg oral, Basal): 120.0 ± 4.2 mmHg | SBP (systolic blood pressure) ([3]; enalapril 3 mg/kg oral, Basal): 164.8 ± 3.5 mmHg

COC(=O)C1=C(C)NC(C)=C(C(=O)OC(C)(C)CN(C)CCC(c2ccccc2)c2ccccc2)C1c1cccc([N+](=O)[O-])c1 (centres unmarked) [lercanidipine, methyl 1,1,N-trimethyl-N-(3,3-diphenylpropyl)-2-aminoethyl 1,4-dihydro-2,6-dimethyl-4-(3-nitrophenyl)pyridine-3,5-dicarboxylate]
DBP (diastolic blood pressure) [1, 17]: 69.8 ± 2.5 mmHg | MBP (mean blood pressure) [1, 17]: 83.3 ± 2.8 mmHg | SBP (systolic blood pressure) [1, 17]: 110.4 ± 3.6 mmHg | DBP (diastolic blood pressure) [1, 18]: 70.6 ± 5.4 mmHg | MBP (mean blood pressure) [1, 18]: 85.3 ± 5.7 mmHg | SBP (systolic blood pressure) [1, 18]: 114.5 ± 6.5 mmHg | DBP (diastolic blood pressure) [1, 19]: 119.3 ± 5.2 mmHg | MBP (mean blood pressure) [1, 19]: 135.4 ± 6.4 mmHg | SBP (systolic blood pressure) [1, 19]: 167.6 ± 8.9 mmHg | DBP (diastolic blood pressure) [1, 20]: 97.1 ± 3.1 c mmHg | MBP (mean blood pressure) [1, 20]: 111.5 ± 3.2 c mmHg | SBP (systolic blood pressure) [1, 20]: 140.4 ± 3.8 b mmHg | DBP (diastolic blood pressure) [1, 21]: 93.1 ± 4.0 c mmHg | MBP (mean blood pressure) [1, 21]: 108.9 ± 3.7 c mmHg | SBP (systolic blood pressure) [1, 21]: 140.5 ± 3.7 a mmHg | DBP (diastolic blood pressure) [1, 22]: 89.5 ± 4.3 b mmHg | MBP (mean blood pressure) [1, 22]: 106.1 ± 3.9 b mmHg | SBP (systolic blood pressure) [1, 22]: 139.4 ± 3.7 mmHg | DBP (diastolic blood pressure) [1, 23]: 83.5 ± 4.6 a mmHg | MBP (mean blood pressure) [1, 23]: 99.7 ± 4.7 mmHg | SBP (systolic blood pressure) [1, 23]: 132.0 ± 5.3 mmHg | DBP (diastolic blood pressure) [1, 24]: 78.8 ± 4.0 mmHg | MBP (mean blood pressure) [1, 24]: 95.2 ± 4.1 mmHg | SBP (systolic blood pressure) [1, 24]: 128.1 ± 4.7 mmHg | time of peak plasma levels ([2]; following oral dosing): 2 to 3 h | DBP (diastolic blood pressure) [3, 25]: 107.0 ± 5.8 mmHg | SBP (systolic blood pressure) [3, 25]: 152.5 ± 6.6 mmHg | DBP (diastolic blood pressure) [3, 26]: 95.3 ± 3.6 c mmHg | SBP (systolic blood pressure) [3, 26]: 142.5 ± 4.8 b mmHg | DBP (diastolic blood pressure) [3, 27]: 89.0 ± 4.8 c mmHg | SBP (systolic blood pressure) [3, 27]: 138.3 ± 5.1 c mmHg | DBP (diastolic blood pressure) [3, 28]: 87.5 ± 6.3 c mmHg | SBP (systolic blood pressure) [3, 28]: 142.3 ± 7.4 a mmHg | DBP (diastolic blood pressure) [3, 29]: 87.3 ± 5.3 c mmHg | SBP (systolic blood pressure) [3, 29]: 138.3 ± 5.7 c mmHg | DBP (diastolic blood pressure) [3, 30]: 93.0 ± 5.6 c mmHg | SBP (systolic blood pressure) [3, 30]: 140.5 ± 5.9 b mmHg | DBP (diastolic blood pressure) [3, 31]: 94.0 ± 7.2 c mmHg | SBP (systolic blood pressure) [3, 31]: 139.3 ± 10.1 c mmHg | DBP (diastolic blood pressure) [3, 32]: 96.8 ± 5.1 c mmHg | SBP (systolic blood pressure) [3, 32]: 141.0 ± 7.2 b mmHg | DBP (diastolic blood pressure) [3, 33]: 104.0 ± 5.0 a mmHg | SBP (systolic blood pressure) [3, 33]: 144.8 ± 6.8 a mmHg | DBP (diastolic blood pressure) [3, 34]: 108.0 ± 3.5 mmHg | SBP (systolic blood pressure) [3, 34]: 150.0 ± 6.8 mmHg | DBP (diastolic blood pressure) [3, 35]: 117.5 ± 5.2 mmHg | SBP (systolic blood pressure) [3, 35]: 161.3 ± 3.8 mmHg

Reference: patent publication US20030180355A1, “Combination therapy for hypertension” (priority 2001, published 2003)
